What was measured:
[1] = target: PIK3CA (human) (UniProt P42336); assay: Assessment of PIK3CA Kinase Activity
[2] = target: PIK3CD (Human) (UniProt O00329); assay: Assessment of PIK3CD Kinase Activity
[3] = target: PIK3CG (human) (UniProt P48736); assay: Assessment of PIK3CG Kinase Activity
[4] = target: PIK3CB (Human) (UniProt P42338); assay: Assessment of PIK3CB Kinase Activity
Chain of PIK3CB (Human) (P42338 whole entry, looked up): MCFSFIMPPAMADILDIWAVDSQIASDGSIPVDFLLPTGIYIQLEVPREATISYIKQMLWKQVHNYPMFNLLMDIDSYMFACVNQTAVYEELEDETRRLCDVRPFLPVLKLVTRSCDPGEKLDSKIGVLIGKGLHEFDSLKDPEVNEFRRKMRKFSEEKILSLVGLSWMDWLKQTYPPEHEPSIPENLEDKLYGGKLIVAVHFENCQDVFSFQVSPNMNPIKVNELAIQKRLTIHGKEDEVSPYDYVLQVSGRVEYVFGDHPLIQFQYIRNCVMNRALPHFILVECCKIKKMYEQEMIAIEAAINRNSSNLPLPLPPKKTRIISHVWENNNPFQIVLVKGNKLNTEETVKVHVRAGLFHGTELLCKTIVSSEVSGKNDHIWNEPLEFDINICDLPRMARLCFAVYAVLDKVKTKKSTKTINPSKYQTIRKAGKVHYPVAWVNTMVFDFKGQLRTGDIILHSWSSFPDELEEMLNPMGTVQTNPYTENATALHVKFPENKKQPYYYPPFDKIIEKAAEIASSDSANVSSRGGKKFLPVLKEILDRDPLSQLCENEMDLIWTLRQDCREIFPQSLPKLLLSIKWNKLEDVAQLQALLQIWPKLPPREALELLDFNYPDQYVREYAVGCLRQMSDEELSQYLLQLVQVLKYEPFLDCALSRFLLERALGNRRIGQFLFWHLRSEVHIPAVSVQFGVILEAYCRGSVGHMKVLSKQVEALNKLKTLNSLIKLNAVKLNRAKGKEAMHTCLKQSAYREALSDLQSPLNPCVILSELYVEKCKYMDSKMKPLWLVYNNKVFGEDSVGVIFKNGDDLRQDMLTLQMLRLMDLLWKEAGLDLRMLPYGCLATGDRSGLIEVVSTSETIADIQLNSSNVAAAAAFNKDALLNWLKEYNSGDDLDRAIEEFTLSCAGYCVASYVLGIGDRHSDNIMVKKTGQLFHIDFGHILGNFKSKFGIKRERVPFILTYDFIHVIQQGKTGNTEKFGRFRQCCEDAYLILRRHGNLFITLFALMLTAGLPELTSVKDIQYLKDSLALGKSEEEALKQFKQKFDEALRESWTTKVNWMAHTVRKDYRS

Chain of PIK3CG (human) (P48736 whole entry, looked up): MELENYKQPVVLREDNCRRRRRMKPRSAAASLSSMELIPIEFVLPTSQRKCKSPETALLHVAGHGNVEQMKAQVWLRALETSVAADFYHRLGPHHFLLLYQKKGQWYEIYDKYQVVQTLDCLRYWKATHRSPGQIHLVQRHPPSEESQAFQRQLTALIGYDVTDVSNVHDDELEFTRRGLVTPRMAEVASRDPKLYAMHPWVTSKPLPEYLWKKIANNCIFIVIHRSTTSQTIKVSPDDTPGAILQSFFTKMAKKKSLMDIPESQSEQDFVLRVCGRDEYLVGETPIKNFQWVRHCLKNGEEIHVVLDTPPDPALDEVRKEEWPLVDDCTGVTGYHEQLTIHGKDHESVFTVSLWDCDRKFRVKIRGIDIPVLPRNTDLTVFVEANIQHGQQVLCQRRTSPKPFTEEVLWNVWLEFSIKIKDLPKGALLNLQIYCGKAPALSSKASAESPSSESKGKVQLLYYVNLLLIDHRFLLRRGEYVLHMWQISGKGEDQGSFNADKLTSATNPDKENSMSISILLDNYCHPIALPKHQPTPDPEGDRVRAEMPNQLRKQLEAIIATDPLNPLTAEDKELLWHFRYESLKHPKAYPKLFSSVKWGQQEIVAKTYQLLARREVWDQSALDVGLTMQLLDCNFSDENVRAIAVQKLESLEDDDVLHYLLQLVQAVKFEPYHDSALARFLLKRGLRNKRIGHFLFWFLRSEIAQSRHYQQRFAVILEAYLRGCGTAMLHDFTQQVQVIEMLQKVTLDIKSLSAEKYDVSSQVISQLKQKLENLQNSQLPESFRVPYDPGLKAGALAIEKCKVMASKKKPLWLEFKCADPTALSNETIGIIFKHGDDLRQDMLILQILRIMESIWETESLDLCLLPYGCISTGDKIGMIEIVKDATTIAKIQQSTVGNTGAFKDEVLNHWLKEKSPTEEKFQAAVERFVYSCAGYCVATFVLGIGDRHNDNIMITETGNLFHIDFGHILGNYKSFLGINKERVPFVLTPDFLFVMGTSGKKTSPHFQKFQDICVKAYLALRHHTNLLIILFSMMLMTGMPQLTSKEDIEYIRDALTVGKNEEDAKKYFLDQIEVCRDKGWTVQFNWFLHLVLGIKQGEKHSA
Chain of PIK3CA (human) (P42336 whole entry, looked up): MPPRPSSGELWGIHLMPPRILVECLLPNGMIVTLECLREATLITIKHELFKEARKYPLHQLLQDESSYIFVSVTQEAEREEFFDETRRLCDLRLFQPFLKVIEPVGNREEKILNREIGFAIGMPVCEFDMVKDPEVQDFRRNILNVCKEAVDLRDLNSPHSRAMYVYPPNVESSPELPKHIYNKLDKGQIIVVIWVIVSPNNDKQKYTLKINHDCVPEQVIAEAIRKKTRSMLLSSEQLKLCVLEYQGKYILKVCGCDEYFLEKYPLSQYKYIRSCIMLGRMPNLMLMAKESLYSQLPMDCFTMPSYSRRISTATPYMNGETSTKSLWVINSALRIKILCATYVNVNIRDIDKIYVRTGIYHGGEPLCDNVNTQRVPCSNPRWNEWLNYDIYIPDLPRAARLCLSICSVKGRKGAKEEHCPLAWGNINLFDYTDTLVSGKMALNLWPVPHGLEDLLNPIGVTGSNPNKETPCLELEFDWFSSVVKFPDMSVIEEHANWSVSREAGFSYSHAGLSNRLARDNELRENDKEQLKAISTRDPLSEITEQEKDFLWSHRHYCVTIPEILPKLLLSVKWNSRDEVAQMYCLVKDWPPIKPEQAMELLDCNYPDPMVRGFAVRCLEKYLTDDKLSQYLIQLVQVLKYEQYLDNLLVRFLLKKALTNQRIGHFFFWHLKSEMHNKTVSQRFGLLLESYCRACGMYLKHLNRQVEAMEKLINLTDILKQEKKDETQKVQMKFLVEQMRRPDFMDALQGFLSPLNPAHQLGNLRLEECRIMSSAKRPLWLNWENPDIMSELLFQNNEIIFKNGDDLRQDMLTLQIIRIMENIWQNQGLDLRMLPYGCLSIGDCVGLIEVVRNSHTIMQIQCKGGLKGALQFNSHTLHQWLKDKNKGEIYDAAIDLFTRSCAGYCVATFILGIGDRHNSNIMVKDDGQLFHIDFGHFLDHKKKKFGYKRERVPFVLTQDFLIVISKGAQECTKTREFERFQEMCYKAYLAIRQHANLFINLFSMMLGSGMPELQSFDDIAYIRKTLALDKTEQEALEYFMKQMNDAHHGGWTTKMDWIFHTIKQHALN
Chain of PIK3CD (Human) (O00329 whole entry, looked up): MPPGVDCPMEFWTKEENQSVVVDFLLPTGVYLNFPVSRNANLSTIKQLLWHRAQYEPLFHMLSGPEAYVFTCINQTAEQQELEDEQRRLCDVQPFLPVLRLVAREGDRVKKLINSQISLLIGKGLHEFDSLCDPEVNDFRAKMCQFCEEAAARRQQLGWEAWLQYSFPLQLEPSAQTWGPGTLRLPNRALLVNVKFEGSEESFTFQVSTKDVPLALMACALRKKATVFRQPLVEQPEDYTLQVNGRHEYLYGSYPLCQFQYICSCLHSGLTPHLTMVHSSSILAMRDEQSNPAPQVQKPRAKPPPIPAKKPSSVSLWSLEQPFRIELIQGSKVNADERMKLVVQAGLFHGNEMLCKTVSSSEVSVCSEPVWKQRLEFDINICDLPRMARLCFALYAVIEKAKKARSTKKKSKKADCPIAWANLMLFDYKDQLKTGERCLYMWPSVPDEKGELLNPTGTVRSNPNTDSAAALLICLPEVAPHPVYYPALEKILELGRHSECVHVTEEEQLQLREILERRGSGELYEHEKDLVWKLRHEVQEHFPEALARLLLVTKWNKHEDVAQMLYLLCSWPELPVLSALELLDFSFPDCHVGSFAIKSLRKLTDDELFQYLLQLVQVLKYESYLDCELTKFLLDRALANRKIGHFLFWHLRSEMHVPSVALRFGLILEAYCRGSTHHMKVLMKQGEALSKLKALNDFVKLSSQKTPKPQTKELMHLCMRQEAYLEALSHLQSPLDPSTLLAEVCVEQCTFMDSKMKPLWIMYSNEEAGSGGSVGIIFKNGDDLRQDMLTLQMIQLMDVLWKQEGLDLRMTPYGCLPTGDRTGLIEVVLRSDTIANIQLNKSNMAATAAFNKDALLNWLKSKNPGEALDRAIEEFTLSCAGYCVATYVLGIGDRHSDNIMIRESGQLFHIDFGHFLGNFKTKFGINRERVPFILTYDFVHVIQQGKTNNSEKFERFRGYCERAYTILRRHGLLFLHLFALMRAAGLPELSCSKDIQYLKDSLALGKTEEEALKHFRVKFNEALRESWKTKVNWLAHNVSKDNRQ

IC50 [1] | IC50 [2] | IC50 [3] | IC50 [4] | SMILES
500 to 1000 nM |  |  |  | CNc1nc(C)c2cc(-c3ccc(O)c(F)c3)ccc2n1
500 to 1000 nM |  |  |  | CNc1nc(C)c2cc(-c3ccc(F)c(O)c3)ccc2n1
≤ 100 nM | ≤ 100 nM | ≤ 100 nM |  | Cc1nc(Nc2cccnc2)nc2ccc(-c3cc(O)cc(F)c3)cc12
500 to 1000 nM |  |  |  | Cc1nc(N)nc2ccc(-c3cnc4[nH]ccc4c3)cc12
500 to 1000 nM |  |  |  | CNc1nc(C)c2cc(-c3ccc(O)c(Cl)c3)ccc2n1
100 to 500 nM | ≤ 100 nM | ≤ 100 nM | 100 to 500 nM | Cc1nc(N)nc2ccc(-c3cccc(O)c3)cc12
100 to 500 nM | 100 to 500 nM | ≤ 100 nM |  | CNc1nc(C)c2cc(-c3cccc(O)c3)ccc2n1
500 to 1000 nM |  | 100 to 500 nM |  | CNc1nc(C)c2cc(-c3cnc4[nH]ccc4c3)ccc2n1
100 to 500 nM | ≤ 100 nM | ≤ 100 nM | 500 to 1000 nM | CNc1nc(C)c2cc(-c3cc(O)cc(F)c3)ccc2n1
100 to 500 nM |  |  |  | Nc1ncc2cc(-c3cccc(O)c3)ccc2n1
≤ 100 nM | ≤ 100 nM | ≤ 100 nM |  | Cc1nc(Nc2cccnc2)nc2ccc(-c3cccc(O)c3)cc12

Source: the Kinase Knowledgebase extract (Sharma et al. 2016)
